# System: MDA-MB-231 multicell spheroids, viability
# Test: Anticancer human tumor MDA-MB-231 cell line growth inhibition [PI3K];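 further: spheroids exposed to agents for seven days before reading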;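 on viability, T/C: percent of vehicle control luminescence with DMSO treated spheroids as 100%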
# Conditions: for IC50: curve of first compound; for viability, T/C: stronger effect = lower value
# Outline: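 Agents were dosed from a top concentration near clinical Cmax (otherwise 10 microM) in half-log decrements, alone or combined with PI3K inhibitors. The spheroids contain tumor cells plus endothelial (HUVEC) and MSC stroma; viability is measured.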
# [1] = second compound 0.0316 µM, first compound 0.0316 µM
# [2] = second compound 0.0316 µM, first compound 0.1 µM
# [3] = second compound 0.0316 µM, first compound 0.316 µM
# [4] = second compound 0.0316 µM, first compound 1 µM
# [5] = second compound 0.0316 µM, first compound 3.16 µM
# [6] = second compound 0.0316 µM, first compound 10 µM
# [7] = second compound 0.1 µM, first compound 0.0316 µM
# [8] = second compound 0.1 µM, first compound 0.1 µM
# [9] = second compound 0.1 µM, first compound 0.316 µM
# [10] = second compound 0.1 µM, first compound 1 µM
# [11] = second compound 0.1 µM, first compound 3.16 µM
# [12] = second compound 0.1 µM, first compound 10 µM
# [13] = second compound 0.316 µM, first compound 0.0316 µM
# [14] = second compound 0.316 µM, first compound 0.1 µM
# [15] = second compound 0.316 µM, first compound 0.316 µM
# [16] = second compound 0.316 µM, first compound 1 µM
# [17] = second compound 0.316 µM, first compound 3.16 µM
# [18] = second compound 0.316 µM, first compound 10 µM
# [19] = second compound 1 µM, first compound 0.0316 µM
# [20] = second compound 1 µM, first compound 0.1 µM
# [21] = second compound 1 µM, first compound 0.316 µM
# [22] = second compound 1 µM, first compound 1 µM
# [23] = second compound 1 µM, first compound 3.16 µM
# [24] = second compound 1 µM, first compound 10 µM
# [25] = second compound 3.16 µM, first compound 0.0316 µM
# [26] = second compound 3.16 µM, first compound 0.1 µM
# [27] = second compound 3.16 µM, first compound 0.316 µM
# [28] = second compound 3.16 µM, first compound 1 µM
# [29] = second compound 3.16 µM, first compound 3.16 µM
# [30] = second compound 3.16 µM, first compound 10 µM
# [31] = second compound 10 µM, first compound 0.0316 µM
# [32] = second compound 10 µM, first compound 0.1 µM
# [33] = second compound 10 µM, first compound 0.316 µM
# [34] = second compound 10 µM, first compound 1 µM
# [35] = second compound 10 µM, first compound 3.16 µM
# [36] = second compound 10 µM, first compound 10 µM
smiles,measurement,setting,value
Cn1ncc(Cl)c1-c1cc(C(=O)NC(CN)Cc2cccc(F)c2)sc1Cl (centres undefined) + CC(Nc1ncnc2nc[nH]c12)c1cc2cccc(Cl)c2c(=O)n1-c1ccccc1,IC50,second compound 0.0316 µM,3880 nM
same,IC50,second compound 0.1 µM,3590 nM
same,IC50,second compound 0.316 µM,2610 nM
same,IC50,second compound 1 µM,2190 nM
same,IC50,second compound 3.16 µM,1050 nM
same,IC50,second compound 10 µM,< 31.6 nM
same,"viability, T/C",[1],100%
same,"viability, T/C",[2],96.4%
same,"viability, T/C",[3],84.6%
same,"viability, T/C",[4],74.9%
same,"viability, T/C",[5],55%
same,"viability, T/C",[6],27.8%
same,"viability, T/C",[7],103%
same,"viability, T/C",[8],97.7%
same,"viability, T/C",[9],95.4%
same,"viability, T/C",[10],75.4%
same,"viability, T/C",[11],53.3%
same,"viability, T/C",[12],29.2%
same,"viability, T/C",[13],93.1%
same,"viability, T/C",[14],97.6%
same,"viability, T/C",[15],84.9%
same,"viability, T/C",[16],65.2%
same,"viability, T/C",[17],48.9%
same,"viability, T/C",[18],27.5%
same,"viability, T/C",[19],77.5%
same,"viability, T/C",[20],80.5%
same,"viability, T/C",[21],69.5%
same,"viability, T/C",[22],64%
same,"viability, T/C",[23],43.6%
same,"viability, T/C",[24],23.4%
same,"viability, T/C",[25],63.6%
same,"viability, T/C",[26],62.2%
same,"viability, T/C",[27],57%
same,"viability, T/C",[28],51.9%
same,"viability, T/C",[29],36.3%
same,"viability, T/C",[30],22%
same,"viability, T/C",[31],45.3%
same,"viability, T/C",[32],45%
same,"viability, T/C",[33],47.5%
same,"viability, T/C",[34],43.2%
same,"viability, T/C",[35],29.1%
same,"viability, T/C",[36],20.9%
Cn1nccc1Nc1nccc(-c2ccn(C(CO)c3ccc(Cl)c(F)c3)c(=O)c2)n1 (centres undefined) + CC(Nc1ncnc2nc[nH]c12)c1cc2cccc(Cl)c2c(=O)n1-c1ccccc1,IC50,second compound 0.0316 µM,706 nM
same,IC50,second compound 0.1 µM,512 nM
same,IC50,second compound 0.316 µM,300 nM
same,IC50,second compound 1 µM,117 nM
same,IC50,second compound 3.16 µM,< 31.6 nM
same,IC50,second compound 10 µM,< 31.6 nM
same,"viability, T/C",[1],80.1%
same,"viability, T/C",[2],68.8%
same,"viability, T/C",[3],56.8%
same,"viability, T/C",[4],46.4%
same,"viability, T/C",[5],38.6%
same,"viability, T/C",[6],27.9%
same,"viability, T/C",[7],75.3%
same,"viability, T/C",[8],70.2%
same,"viability, T/C",[9],50.6%
same,"viability, T/C",[10],44.3%
same,"viability, T/C",[11],36.4%
same,"viability, T/C",[12],27.1%
same,"viability, T/C",[13],79.3%
same,"viability, T/C",[14],62.3%
same,"viability, T/C",[15],48%
same,"viability, T/C",[16],40.1%
same,"viability, T/C",[17],35.5%
same,"viability, T/C",[18],26.8%
same,"viability, T/C",[19],64.8%
same,"viability, T/C",[20],50.1%
same,"viability, T/C",[21],39.4%
same,"viability, T/C",[22],36.4%
same,"viability, T/C",[23],33%
same,"viability, T/C",[24],22.1%
same,"viability, T/C",[25],45.9%
same,"viability, T/C",[26],38.8%
same,"viability, T/C",[27],28.5%
same,"viability, T/C",[28],24.8%
same,"viability, T/C",[29],25.2%
same,"viability, T/C",[30],21.2%
same,"viability, T/C",[31],36.5%
same,"viability, T/C",[32],27.3%
same,"viability, T/C",[33],25.7%
same,"viability, T/C",[34],20.8%
same,"viability, T/C",[35],22.9%
same,"viability, T/C",[36],16.8%

# Source: PubChem BioAssay AID1963958 (Molecular Pharmacology Branch, DTP, NCI, 2024)
